Series [1] relates to HCV genotype 1b subgenomic replicon in Huh-5-2 cells. In words: Replicon assay on Huh5-2. The conditions noted are these: for Replicon assay on Huh5-2 SI (ratio of CC50 to EC50): Huh-5-2 cells; for anti-HCV activity and toxicity in words: Huh-5-2 replicon and MTS. Format: cell-based, Hepatitis C virus.
In series [2] the target is recombinant HCV NS5BCΔ21 (Hepatitis C virus genotype 1b, UniProt O92972). In words: NS5B polymerase primer-dependent elongation assay. Format: biochemical, HCV genotype 1b (HC-J4). Conditions: for fold reduction in potency against NS5B relative to derivative 8: ratio of IC50 values vs 8.
Series [3] deals with Huh-9-13 cells. In words: MTS assay and microscopic analysis on Huh 9-13 cells. It counts as cell-based. (Tetrazolium assays rely on reduction of a dye to a coloured formazan, in cell work by metabolically active cells.)
Series [4] has as its system NS5B. Conditions: read-out: NS5B IC50 reported by Kumar et al.; literature value; cited from earlier work.

Some results are limits rather than exact numbers.

Take `Nc1cc2c(=O)c(C(=O)O)cn(Cc3ccc(Cl)cc3)c2cc1N1CCN(c2ccccn2)CC1` [Compound 28, 6-amino-1-(4-chlorobenzyl)-4-oxo-7-[4-(2-pyridinyl)-1-piperazinyl]-1,4-dihydro-3-quinolinecarboxylic acid]: the “Replicon assay on Huh5-2 SI (ratio of CC50 to EC50)” value in series [1] is recorded as over 28. Also, the “fold reduction in potency against NS5B relative to derivative 8” value in series [2] came out at 345 fold.
On to `Nc1cc2c(=O)c(C(=O)OCc3ccc(Cl)cc3)cn(Cc3ccc(Cl)cc3)c2cc1N1CCN(c2cccc(C(F)(F)F)c2)CC1` [Compound 10, 4-Chlorobenzyl 6-amino-1-(4-chlorobenzyl)-4-oxo-7-{4-[3-(trifluoromethyl)phenyl]-1-piperazinyl}-1,4-dihydro-3-quinolinecarboxylate], for which the “Replicon assay on Huh5-2 SI (ratio of CC50 to EC50)” value in series [1] is recorded as over 6.
For `Nc1cc2c(=O)c(C(=O)OCc3ccc(Cl)cc3)cn(Cc3ccc(Cl)cc3)c2cc1N1CCN(c2ccccn2)CC1` [Compound 8, 4-Chlorobenzyl 6-amino-1-(4-chlorobenzyl)-4-oxo-7-[4-(2-pyridinyl)-1-piperazinyl]-1,4-dihydro-3-quinolinecarboxylate], the “cellular morphology by microscopic analysis” value in series [3] is “cell aggregation”.
In the case of `Cc1ccc(COC(=O)c2cn(Cc3ccc(C(F)(F)F)cc3F)c3cc(Cl)c(N)cc3c2=O)cc1` [Compound 4, 4-Methylbenzyl 6-amino-7-chloro-1-[2-fluoro-4-(trifluoromethyl)benzyl]-4-oxo-1,4-dihydro-3-quinolinecarboxylate], in series [1], the “Replicon assay on Huh5-2 SI (ratio of CC50 to EC50)” value is over 2.5; the “anti-HCV activity and toxicity in words” value is “neither active nor toxic”.
As for `CN1CCN(c2cc3c(cc2N)c(=O)c(C(=O)OCc2ccc(Cl)cc2)cn3Cc2ccc(Cl)cc2)CC1` [Compound 7, 4-Chlorobenzyl 6-amino-1-(4-chlorobenzyl)-7-(4-methyl-1-piperazinyl)-4-oxo-1,4-dihydro-3-quinolinecarboxylate], the “fold higher NS5B inhibition than reference compound 2” value in series [2] (head to head, same assay conditions) was 5 fold.
With `Nc1cc2c(=O)c(C(=O)OCc3ccc(Cl)cc3)cn(Cc3ccc(Cl)cc3)c2cc1Cl` [Compound 5, 4-Chlorobenzyl 6-amino-7-chloro-1-(4-chlorobenzyl)-4-oxo-1,4-dihydro-3-quinolinecarboxylate], the “anti-HCV activity and toxicity in words” value in series [1] is “neither active nor toxic”. The “inhibition of NS5B RdRp activity in preliminary screening” value in series [2] (25 µM compound concentration) was “inactive”.
As for `Nc1cc2c(=O)c(C(=O)OCc3ccc(Cl)cc3)cn(Cc3ccc(Cl)cc3)c2cc1N1CCN(c2nc3ccccc3s2)CC1` [Compound 9, 4-Chlorobenzyl 6-amino-7-[4-(1,3-benzothiazol-2-yl)-1-piperazinyl]-1-(4-chlorobenzyl)-4-oxo-1,4-dihydro-3-quinolinecarboxylate], the “Replicon assay on Huh5-2 SI (ratio of CC50 to EC50)” value in series [1] was over 17.
Regarding `CCOC(=O)c1cn(Cc2ccc(Cl)cc2)c2cc(N3CCN(c4ccccn4)CC3)c(N)cc2c1=O` [Compound 27, Ethyl 6-amino-1-(4-chlorobenzyl)-4-oxo-7-[4-(2-pyridinyl)-1-piperazinyl]-1,4-dihydro-3-quinolinecarboxylate], the “fold reduction in potency against NS5B relative to derivative 8” value in series [2] is on record as ~ 45 fold.
For the compound `COc1cc2c(=O)c(C(=O)OCc3ccc(C)cc3)cn(Cc3ccc(C(F)(F)F)cc3F)c2cc1OC` [Compound 2, reference compound], the IC50 in series [4] is 8 nM. Moreover, the “selectivity of anti-HCV effect from dose-response curve” value in series [1] (Huh-5-2, data not shown) was “non-selective anti-HCV agent”.

By IC50 is commonly meant the point on the concentration scale where inhibition reaches its midpoint.

(Values after PMC3954902 (Journal of medicinal chemistry, 2013).)
